Measurements reported in US11253527B2, “Method and composition for inhibiting virus infection” (priority 2019, dated 2022).

What was measured:
[1] = system: Oral epithelial cells (OC3); assay: MTT cell viability of mock- or HSV-1-infected oral epithelial cells (OC3); format: cell-based; settings: OC3 cells, MTT, 19 hours post infection
Method: (§1) FIG. 4 provides Experimental conditions for evaluation of the effects of Antrodia camphorata fruit body extracts on oral epithelial cells during HSV-1 infection. Three experimental conditions, including no-treatment, pre-treatment and post-treatment were performed. Oral epithelial cells (OC3) were pre-treated with media only or media containing each Antrodia camphorata extracts for 2 hours, followed by HSV-1 inoculation. Cells were infected with HSV-1 viruses at multiplicity of infection (MOI) of 5 or mock infected for 1 hour at 37° C. for viral entry to occur. Antrodia camphorata extracts were not added during viral inoculation for 1 hour to avoid of its direct effects on virions. Mock- or HSV-1-infected cells were further incubated in the absence or presence of the drug for 19 hours.
The oral epithelial cell line (OC3) was used to determine the possible effects of Antrodia camphorata extracts on oral epithelial cells during HSV-1 infection. Cell monolayers were treated as illustrated in FIG. 4 (please also see details in the Materials and Methods section). Three experimental conditions, including no-treatment, pre-treatment and post-treatment were performed. Whether these Antrodia camphorata extracts have effects before or after viral infection were examined. The effects of Antrodia camphorata extracts on viral propagation (viral yields) in infected oral epithelial cells were examined. At 19-20 h post infection, viral yields in the supernatants were determined using the plaque assay. Viability of treated cells was also determined using the MTT assay for the mitochondrial dehydrogenase activity. Moreover, purified HSV-1 virions were directly treated with Antrodia camphorata extracts to examine whether Antrodia camphorata extracts exert anti-HSV-1 activity directly on virus particles before viral entry. […]
The mitochondrial dehydrogenase activity of treated cells was evaluated using the FBS-free medium containing 1 mg/ml of 3-[4,5-dimethylthiazol-2-yl]-2,5 diphenyltetrazolium bromide (MTT). […]

HSV-1 virus (KOS strain) = assay: HSV-1 viral yields in supernatants of OC3 cells, plaque assay; format: cell-based, Herpes simplex virus type 1; settings: for viral yields in the supernatants, post-treatment: OC3 cells post-treated after HSV-1 infection (MOI 5), 19 hours; for viral yield reduced to: media control = 100%; for viral yields in the supernatants, pre-treatment: OC3 cells pre-treated 2 hours before HSV-1 infection (MOI 5)
Method: as §1
(§2) The oral epithelial cell line (OC3) was used to determine the possible effects of Antrodia camphorata extracts on oral epithelial cells during HSV-1 infection. Cell monolayers were treated as illustrated in FIG. 4 (please also see details in the Materials and Methods section). Three experimental conditions, including no-treatment, pre-treatment and post-treatment were performed. Whether these Antrodia camphorata extracts have effects before or after viral infection were examined. The effects of Antrodia camphorata extracts on viral propagation (viral yields) in infected oral epithelial cells were examined. At 19-20 h post infection, viral yields in the supernatants were determined using the plaque assay. Viability of treated cells was also determined using the MTT assay for the mitochondrial dehydrogenase activity. Moreover, purified HSV-1 virions were directly treated with Antrodia camphorata extracts to examine whether Antrodia camphorata extracts exert anti-HSV-1 activity directly on virus particles before viral entry.
HSV-1 virus (KOS strain) from the extra-cellular fluid of infected Vero cells was purified using sucrose-gradient. Purified viruses were stored frozen in small aliquots. Purified viruses were titered using the plaque assay.
Oral epithelial cells (OC3 cells) were infected with HSV-1 at multiplicity of infection (MOI) of 5 or mock infected for 1 h at 37° C. for viral entry to occur. Unbound viruses were removed. Infected cells were then overlaid with appropriate media and incubated at 37° C. The Antrodia camphorata fruit body extracts used were A2 (Antrodia camphorata extracts), A3 (dehydrosulphurenic acid), A4 (antcin K), A5 (versisponic acid), and A6 (dehydroeburicoic acid). For the effects of Antrodia camphorata fruit body extracts, oral cells were treated in three different experimental conditions (FIG. 1): (1) no treatment, (2) pre-treatment with each Antrodia camphorata fruit body extracts before infection and (3) post-treatment with each Antrodia camphorata fruit body extracts after infection. Purified HSV-1 virions were also incubated directly with media only or media containing Antrodia camphorata fruit body extracts. The viral infectivity of treated virions was then examined using the plaque assay.
Viral titers in the supernatants after infection were determined using the plaque assay. Cells were grown to confluence and infected with tenfold serial dilution of the samples. Cells were then overlaid with medium containing 3% carboxymethylcellulose to prevent the formation of secondary plaques. Cells were incubated until well-defined clear plaques were formed. Cells were fixed with 3.7% formaldehyde and stained with crystal violet. Plaques were observed and counted under an inverted microscope. The viral yield of the media-pretreated HSV-1 infected control was considered to be 100%.

[2] = system: HuS-E/2 immortalized human primary hepatocytes cells; assay: MTT cell viability, HuS-E/2 cells; settings: 48 h, 20 μg/ml
HepG2.2.15 cells = assay: MTT cell viability, HepG2.2.15 cells; settings: 48 h, 20 μg/ml
HBV = HBV entry/infection of DMSO-differentiated HuS-E/2 cells (HBsAg/HBeAg ELISA, HBV mRNA RT-PCR); format: cell-based, Hepatitis B virus; settings: for levels of HBV mRNA: HuS-E/2 cells, drug present during infection; for inhibiting the entry of HBV into HuS-E/2 cells: by HBsAg, HBeAg and HBV mRNA expression levels
Method: DMSO-differentiated HuS-E/2 cells were exposed to HBV at a MOI of 10 for 20 h in the presence of the indicated concentration of Antrodia camphorata fruit body extracts, then the HBV and drugs were removed and the cells incubated for 2 days, when HBsAg secreted into the culture medium was measured by ELISA and expressed as a percentage of the value for the non-drug-treated controls. The results are the mean±SD for three independent experiments. *, P<0.05; **, P<0.01; ***, P<0.001.
DMSO-differentiated HuS-E/2 cells were exposed to HBV at a MOI of 10 for 20 h in the presence of the indicated concentration of Antrodia camphorata fruit body extracts, then the HBV and drugs were removed and the cells incubated for 2 days, when HBeAg secreted into the culture medium was measured by ELISA and expressed as a percentage of the value for the non-drug-treated controls. The results are the mean±SD for three independent experiments. *, P<0.05; **, P<0.01; ***, P<0.001.
DMSO-differentiated HuS-E/2 cells were exposed to HBV at a MOI of 10 for 20 h in the presence of the indicated concentration of Antrodia camphorata fruit body extracts, then the HBV and drugs were removed and the cells incubated for 2 days. RNA was then extracted from cells and subjected to RT-PCR to measure HBV mRNA levels. The results expressed were as a percentage of the value for the non-drug-treated cells. Control PCRs were performed for endogenous GAPDH mRNA as the loading control. The results are the mean±SD for three independent experiments. *, P<0.05; **, P<0.01; ***, P<0.001.
HuS-E/2 cells that retains primary hepatocyte characteristics even after prolonged culture are utilized for HBV infection. For HBV infection, HuS-E/2 cells were differentiated with 2% DMSO for 7 days, and virus particles were collected to infect and replicate in HuS-E/2 cells as described in our previous study. These cells are useful to assay infectivity of HBV strains, and screening of anti-HBV agents.
Total DNA is extracted with a Genomic DNA isolation kit (Nexttec Biotechnologie, Germany). Total RNA is isolated from cultured cells using TRIzol® reagent (Invitrogen). […] The results are analyzed with the iCycler iQ real-time PCR detection system (Bio-Rad). […]
To evaluate the effects of Antrodia camphorata fruit body extracts on HBV infectivity and replication, HuS-E/2 cells were infected with ayw subtype HBV derived from HepG2.2.15 cells. The different Antrodia camphorata fruit body extracts were added to the medium during infection with HBV for […], then the infected cells were washed and incubated in fresh medium for 48 hours, when HBsAg and HBeAg in culture medium were detected by ELISA and HBV mRNA was detected by real-time PCR as an index of efficiency of HBV infection.

HSV-1 virions = assay: Direct effect on infectivity of purified HSV-1 virions, plaque assay; format: cell-based, Herpes simplex virus type 1; settings: purified virions incubated directly with drug 1 hour at 37° C., dose-dependent
Method: Purified HSV-1 was incubated directly with media containing various concentrations of each Antrodia camphorata extracts for 1 hour at 37° C. The viral titers were then examined in oral epithelial cells (OC3) using the plaque assay. The results shown are the mean±SEM from at least three independent experiments. Statistical differences are shown by different lowercase letters (analysis of variance, Tukey, α=0.05).
as §2
Oral epithelial cells (OC3 cells) were infected with HSV-1 at multiplicity of infection (MOI) of 5 or mock infected for 1 h at 37° C. for viral entry to occur. Unbound viruses were removed. Infected cells were then overlaid with appropriate media and incubated at 37° C. The Antrodia camphorata fruit body extracts used were A2 (Antrodia camphorata extracts), A3 (dehydrosulphurenic acid), A4 (antcin K), A5 (versisponic acid), and A6 (dehydroeburicoic acid). […]
Viral titers in the supernatants after infection were determined using the plaque assay. […] Plaques were observed and counted under an inverted microscope. […]

[3] = OC3 cells post-treated with 2.5 μg/ml after HSV-1 infection
[4] = OC3 cells pre-treated with 10 μg/ml for 2 hours before HSV-1 infection

Structure (SMILES): C=C(CC[C@H](C(=O)O)[C@H]1C[C@H](O)[C@@]2(C)C3=CC[C@H]4C(C)(C)[C@@H](O)CC[C@]4(C)C3=CC[C@]12C)C(C)C [A3, dehydrosulphurenic acid]
- viability of mock-infected cells or HSV-1 infected cells [1]: not affected evidently
- viral yields in the supernatants, post-treatment (HSV-1 virus (KOS strain)): did not reach statistical difference
- viral yield reduced to (HSV-1 virus (KOS strain); [3]): 65%
- viral yields in the supernatants, pre-treatment (HSV-1 virus (KOS strain)): did not reach statistical difference
- viral yield reduced to (HSV-1 virus (KOS strain); [4]): 57%

Structure (SMILES): C=C(CC[C@@H](C(=O)O)[C@H]1C[C@H](OC(C)=O)[C@@]2(C)C3=C(CC[C@]12C)[C@@]1(C)CC[C@H](O)C(C)(C)[C@@H]1CC3)C(C)C [A5, versisponic acid]
- toxic effect (MTT cell viability) [2]: no toxic effect
- toxic effect (MTT cell viability) (HepG2.2.15 cells): little or no toxic effect
- levels of HBV mRNA (HBV): decrease
- inhibiting the entry of HBV into HuS-E/2 cells (HBV): much more effective
- viability of mock-infected cells or HSV-1 infected cells [1]: not affected evidently
- viral infectivity of treated HSV-1 virions (HSV-1 virions): statistically significantly inhibited
- viral yields in the supernatants, post-treatment (HSV-1 virus (KOS strain)): significantly reduced
- viral yields in the supernatants, pre-treatment (HSV-1 virus (KOS strain)): significantly reduced
- viral yield reduced to (HSV-1 virus (KOS strain); OC3 cells pre-treated with 25 μg/ml for 2 hours before HSV-1 infection): 48%
- viral yield reduced to (HSV-1 virus (KOS strain); infected OC3 cells post-treated with 12.5 μg/ml): 57%

Structure (SMILES): C=C(CC[C@@H](C(=O)O)[C@H]1CC[C@@]2(C)C3=CC[C@H]4C(C)(C)[C@@H](O)CC[C@]4(C)C3=CC[C@]12C)C(C)C [A6, dehydroeburicoic acid]
- toxic effect (MTT cell viability) [2]: no toxic effect
- levels of HBV mRNA (HBV): decrease
- inhibiting the entry of HBV into HuS-E/2 cells (HBV): much more effective
- viral infectivity of treated HSV-1 virions (HSV-1 virions): statistically significantly inhibited
- viral yields in the supernatants, post-treatment (HSV-1 virus (KOS strain)): significantly reduced
- viral yield reduced to (HSV-1 virus (KOS strain); [3]): 63%
- viral yields in the supernatants, pre-treatment (HSV-1 virus (KOS strain)): significantly reduced
- viral yield reduced to (HSV-1 virus (KOS strain); [4]): 37%
